Results reported in PubChem BioAssay (NCI).
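Briefly, cells in 96-well plates were exposed to five compound concentrations for 48 h, and endpoints were estimated by linear interpolation. GI50: concentration for 50% inhibition of growth. TGI marks complete inhibition of growth.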

Key:
Assay in all cases: DTP human tumour cell line panel, 48 h
[1] = test system: NCI-H460 lung
[2] = test system: NCI-H522 lung
[3] = test system: NCI/ADR-RES ovarian
[4] = test system: OVCAR-3 ovarian
[5] = test system: OVCAR-4 ovarian
[6] = test system: OVCAR-5 ovarian
[7] = test system: OVCAR-8 ovarian
[8] = test system: PC-3 prostate
[9] = test system: RXF 393 renal
[10] = test system: SF-268 CNS
[11] = test system: SF-295 CNS
[12] = test system: SF-539 CNS
[13] = test system: SK-MEL-2 melanoma
[14] = test system: SK-MEL-28 melanoma
[15] = test system: SK-OV-3 ovarian
[16] = test system: SN12C renal
[17] = test system: SNB-19 CNS
[18] = test system: SNB-75 CNS
[19] = test system: SR leukemia
[20] = test system: SW-620 colon
[21] = test system: T-47D breast
[22] = test system: TK-10 renal
[23] = test system: U251 CNS
[24] = test system: UACC-257 melanoma
[25] = test system: UACC-62 melanoma
[26] = test system: UO-31 renal

## NCCCOc1cc2ccccc2cc1C(=O)NCCOc1nc2ccccc2cc1C(=O)Nc1ccc(Cl)cc1O
[1]
  TGI: 1870 nM
[2]
  GI50: 1340 nM
  TGI: 2840 nM
[3]
  GI50: 1730 nM
  TGI: 3350 nM
[4]
  GI50: 882 nM
  TGI: 2250 nM
[5]
  GI50: 75.5 nM
  TGI: 1820 nM
[6]
  GI50: 1500 nM
  TGI: 2830 nM
[7]
  GI50: 1250 nM
  TGI: 3100 nM
[8]
  GI50: 269 nM
  TGI: 1990 nM
[9]
  GI50: 1530 nM
  TGI: 3020 nM
[10]
  GI50: 1120 nM
  TGI: 2690 nM
[11]
  GI50: 1060 nM
  TGI: 2470 nM
[12]
  GI50: 1120 nM
  TGI: 2340 nM
[13]
  GI50: 1870 nM
  TGI: 3570 nM
[14]
  GI50: 1300 nM
  TGI: 2570 nM
[15]
  GI50: 1340 nM
  TGI: 2630 nM
[16]
  GI50: 1330 nM
  TGI: 2740 nM
[17]
  GI50: 1310 nM
  TGI: 2760 nM
[18]
  GI50: 1100 nM
  TGI: 2300 nM
[19]
  GI50: 224 nM
  TGI: 2110 nM
[20]
  GI50: 82.9 nM
  TGI: 2060 nM
[21]
  GI50: 517 nM
  TGI: 2390 nM
[22]
  GI50: 1300 nM
  TGI: 2760 nM
[23]
  GI50: 1050 nM
  TGI: 2410 nM
[24]
  GI50: 678 nM
  TGI: 2110 nM
[25]
  GI50: 270 nM
  TGI: 2030 nM
[26]
  GI50: 1190 nM
  TGI: 2820 nM
